# Assay results: the kinase profiling compilation of Christmann-Franck et al. (2016)
# Key:
# Assay in all cases: split-luciferase competition binding
# AKT2 (human) = AKT2 (human) (UniProt P31751); details: compound 10.0 µM
# PRKCE (human) = PRKCE (human) (UniProt Q02156); details: compound 10.0 µM
# PRKACA (mouse) = details: compound 10.0 µM; accession and sequence are those of the human protein
# RPS6KA6 KD1 (human) = RPS6KA6 KD1 (human) (UniProt Q9UK32); details: compound 10.0 µM
# PKN1 (human) = PKN1 (human) (UniProt Q16512); details: compound 10.0 µM
# DMPK (human) = DMPK (human) (UniProt Q09013); details: compound 10.0 µM
# PRKCG (human) = PRKCG (human) (UniProt P05129); details: compound 10.0 µM
# PRKCD (human) = PRKCD (human) (UniProt Q05655); details: compound 10.0 µM
# STK32B (human) = STK32B (human) (UniProt Q9NY57); details: compound 10.0 µM
# PDPK1 (human) = PDPK1 (human) (UniProt O15530); details: compound 10.0 µM
# AURKB (human) = AURKB (human) (UniProt Q96GD4); details: compound 10.0 µM
# PRKACB (human) = PRKACB (human) (UniProt P22694); details: compound 10.0 µM
# PRKCI (human) = PRKCI (human) (UniProt P41743); details: compound 10.0 µM
# RPS6KA1 KD1 (human) = RPS6KA1 KD1 (human) (UniProt Q15418); details: compound 10.0 µM
# AURKC (human) = AURKC (human) (UniProt Q9UQB9); details: compound 10.0 µM
# PRKCH (human) = PRKCH (human) (UniProt P24723); details: compound 10.0 µM
# RPS6KA5 KD1 (human) = RPS6KA5 KD1 (human) (UniProt O75582); details: compound 10.0 µM
# PRKX (human) = PRKX (human) (UniProt P51817); details: compound 10.0 µM
# AKT3 (human) = AKT3 (human) (UniProt Q9Y243); details: compound 10.0 µM
# AURKA (human) = AURKA (human) (UniProt O14965); details: compound 10.0 µM
# AKT1 (human) = AKT1 (human) (UniProt P31749); details: compound 10.0 µM
# RPS6KA3 KD1 (human) = RPS6KA3 KD1 (human) (UniProt P51812); details: compound 10.0 µM
# RPS6KA2 KD1 (human) = RPS6KA2 KD1 (human) (UniProt Q15349); details: compound 10.0 µM
# SGK3 (human) = SGK3 (human) (UniProt Q96BR1); details: compound 10.0 µM
# PRKCQ (human) = PRKCQ (human) (UniProt Q04759); details: compound 10.0 µM
# RPS6KA4 KD1 (human) = RPS6KA4 KD1 (human) (UniProt O75676); details: compound 10.0 µM
# SGK2 (human) = SGK2 (human) (UniProt Q9HBY8); details: compound 10.0 µM
# Chain of RPS6KA5 KD1 (human) (O75582 whole entry, looked up): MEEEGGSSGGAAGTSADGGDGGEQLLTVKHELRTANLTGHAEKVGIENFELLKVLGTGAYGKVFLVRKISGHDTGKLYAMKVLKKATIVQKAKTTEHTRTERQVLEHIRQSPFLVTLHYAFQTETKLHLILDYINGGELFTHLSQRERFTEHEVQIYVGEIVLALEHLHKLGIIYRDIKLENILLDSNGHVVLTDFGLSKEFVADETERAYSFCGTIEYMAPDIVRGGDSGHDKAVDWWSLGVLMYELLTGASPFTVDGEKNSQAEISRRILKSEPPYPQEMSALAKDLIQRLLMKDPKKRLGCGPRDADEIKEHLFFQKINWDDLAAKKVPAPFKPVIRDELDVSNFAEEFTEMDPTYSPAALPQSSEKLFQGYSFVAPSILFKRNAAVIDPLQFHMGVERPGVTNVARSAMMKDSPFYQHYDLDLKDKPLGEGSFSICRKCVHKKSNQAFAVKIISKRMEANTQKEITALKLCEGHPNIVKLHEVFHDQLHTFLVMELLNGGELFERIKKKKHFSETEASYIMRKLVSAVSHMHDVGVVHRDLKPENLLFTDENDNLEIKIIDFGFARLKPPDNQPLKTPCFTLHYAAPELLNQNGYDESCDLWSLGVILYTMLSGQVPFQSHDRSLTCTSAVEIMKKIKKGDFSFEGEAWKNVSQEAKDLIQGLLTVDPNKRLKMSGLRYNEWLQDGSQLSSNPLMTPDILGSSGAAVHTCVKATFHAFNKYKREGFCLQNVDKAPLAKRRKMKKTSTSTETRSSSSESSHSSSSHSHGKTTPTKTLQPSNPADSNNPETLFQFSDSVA
# Chain of STK32B (human) (Q9NY57 whole entry, looked up): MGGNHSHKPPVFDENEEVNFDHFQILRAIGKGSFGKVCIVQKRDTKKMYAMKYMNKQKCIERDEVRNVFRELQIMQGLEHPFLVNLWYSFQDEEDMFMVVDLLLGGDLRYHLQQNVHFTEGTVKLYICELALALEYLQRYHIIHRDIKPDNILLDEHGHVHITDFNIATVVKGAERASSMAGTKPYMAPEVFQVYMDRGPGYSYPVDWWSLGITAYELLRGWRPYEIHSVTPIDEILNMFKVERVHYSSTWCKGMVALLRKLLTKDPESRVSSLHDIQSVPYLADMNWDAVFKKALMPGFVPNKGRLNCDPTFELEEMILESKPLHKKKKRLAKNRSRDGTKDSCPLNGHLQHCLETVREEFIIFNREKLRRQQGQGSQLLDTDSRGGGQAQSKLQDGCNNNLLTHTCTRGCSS
# Chain of RPS6KA6 KD1 (human) (Q9UK32 whole entry, looked up): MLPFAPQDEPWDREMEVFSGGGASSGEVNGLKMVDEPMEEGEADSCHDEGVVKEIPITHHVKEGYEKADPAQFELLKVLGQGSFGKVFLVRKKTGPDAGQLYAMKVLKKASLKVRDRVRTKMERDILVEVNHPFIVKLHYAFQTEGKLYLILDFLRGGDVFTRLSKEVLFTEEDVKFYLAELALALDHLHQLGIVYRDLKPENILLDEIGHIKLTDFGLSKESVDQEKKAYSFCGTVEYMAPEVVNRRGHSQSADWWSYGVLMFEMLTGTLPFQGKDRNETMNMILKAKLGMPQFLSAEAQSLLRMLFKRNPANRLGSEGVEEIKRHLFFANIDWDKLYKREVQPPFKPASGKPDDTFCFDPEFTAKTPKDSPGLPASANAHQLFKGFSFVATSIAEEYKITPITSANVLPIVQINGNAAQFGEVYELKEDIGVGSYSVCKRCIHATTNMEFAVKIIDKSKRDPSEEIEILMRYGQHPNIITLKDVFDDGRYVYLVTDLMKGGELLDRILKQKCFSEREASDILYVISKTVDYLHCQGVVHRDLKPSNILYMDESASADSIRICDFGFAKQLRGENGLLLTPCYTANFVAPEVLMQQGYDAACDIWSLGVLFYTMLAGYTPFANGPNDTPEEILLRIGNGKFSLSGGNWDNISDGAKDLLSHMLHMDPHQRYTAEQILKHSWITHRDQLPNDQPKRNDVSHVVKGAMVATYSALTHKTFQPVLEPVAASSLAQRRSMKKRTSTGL
# Chain of DMPK (human) (Q09013 whole entry, looked up): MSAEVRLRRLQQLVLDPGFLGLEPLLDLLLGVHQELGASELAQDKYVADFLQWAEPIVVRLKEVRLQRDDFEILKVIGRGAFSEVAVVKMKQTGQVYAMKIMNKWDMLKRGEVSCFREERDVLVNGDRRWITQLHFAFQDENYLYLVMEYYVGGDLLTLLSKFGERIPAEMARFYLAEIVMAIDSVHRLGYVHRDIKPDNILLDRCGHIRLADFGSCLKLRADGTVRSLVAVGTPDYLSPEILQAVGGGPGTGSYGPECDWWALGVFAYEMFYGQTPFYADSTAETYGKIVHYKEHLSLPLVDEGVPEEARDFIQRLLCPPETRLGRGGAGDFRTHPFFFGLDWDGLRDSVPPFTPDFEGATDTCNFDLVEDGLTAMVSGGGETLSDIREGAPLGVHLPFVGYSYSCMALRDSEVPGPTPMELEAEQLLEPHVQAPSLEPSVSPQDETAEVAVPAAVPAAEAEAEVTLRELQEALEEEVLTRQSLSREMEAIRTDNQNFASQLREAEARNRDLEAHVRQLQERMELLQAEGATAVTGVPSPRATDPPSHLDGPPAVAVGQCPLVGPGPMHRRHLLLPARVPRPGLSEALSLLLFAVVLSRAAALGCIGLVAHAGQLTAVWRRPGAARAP
# Chain of RPS6KA4 KD1 (human) (O75676 whole entry, looked up): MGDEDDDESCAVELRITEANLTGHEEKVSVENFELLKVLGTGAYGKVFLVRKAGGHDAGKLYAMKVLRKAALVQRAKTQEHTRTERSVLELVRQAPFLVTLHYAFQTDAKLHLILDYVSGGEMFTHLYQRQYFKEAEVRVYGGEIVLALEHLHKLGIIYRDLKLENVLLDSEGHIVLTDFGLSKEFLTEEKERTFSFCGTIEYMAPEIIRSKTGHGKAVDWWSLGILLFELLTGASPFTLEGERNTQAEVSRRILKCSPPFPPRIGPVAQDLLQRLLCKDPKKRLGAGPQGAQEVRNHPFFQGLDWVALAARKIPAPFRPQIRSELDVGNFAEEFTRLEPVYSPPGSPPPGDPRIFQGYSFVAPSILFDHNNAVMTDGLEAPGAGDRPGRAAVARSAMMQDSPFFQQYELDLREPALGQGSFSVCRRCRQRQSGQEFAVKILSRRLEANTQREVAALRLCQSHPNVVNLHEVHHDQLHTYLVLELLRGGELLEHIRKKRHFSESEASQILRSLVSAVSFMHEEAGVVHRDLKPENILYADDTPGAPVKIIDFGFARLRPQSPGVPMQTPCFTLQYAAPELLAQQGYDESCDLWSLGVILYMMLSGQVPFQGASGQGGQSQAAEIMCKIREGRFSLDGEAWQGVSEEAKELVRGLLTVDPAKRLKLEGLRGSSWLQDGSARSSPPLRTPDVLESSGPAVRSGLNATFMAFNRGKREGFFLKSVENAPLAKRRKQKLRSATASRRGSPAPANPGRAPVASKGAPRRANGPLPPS
# Chain of RPS6KA2 KD1 (human) (Q15349 whole entry, looked up): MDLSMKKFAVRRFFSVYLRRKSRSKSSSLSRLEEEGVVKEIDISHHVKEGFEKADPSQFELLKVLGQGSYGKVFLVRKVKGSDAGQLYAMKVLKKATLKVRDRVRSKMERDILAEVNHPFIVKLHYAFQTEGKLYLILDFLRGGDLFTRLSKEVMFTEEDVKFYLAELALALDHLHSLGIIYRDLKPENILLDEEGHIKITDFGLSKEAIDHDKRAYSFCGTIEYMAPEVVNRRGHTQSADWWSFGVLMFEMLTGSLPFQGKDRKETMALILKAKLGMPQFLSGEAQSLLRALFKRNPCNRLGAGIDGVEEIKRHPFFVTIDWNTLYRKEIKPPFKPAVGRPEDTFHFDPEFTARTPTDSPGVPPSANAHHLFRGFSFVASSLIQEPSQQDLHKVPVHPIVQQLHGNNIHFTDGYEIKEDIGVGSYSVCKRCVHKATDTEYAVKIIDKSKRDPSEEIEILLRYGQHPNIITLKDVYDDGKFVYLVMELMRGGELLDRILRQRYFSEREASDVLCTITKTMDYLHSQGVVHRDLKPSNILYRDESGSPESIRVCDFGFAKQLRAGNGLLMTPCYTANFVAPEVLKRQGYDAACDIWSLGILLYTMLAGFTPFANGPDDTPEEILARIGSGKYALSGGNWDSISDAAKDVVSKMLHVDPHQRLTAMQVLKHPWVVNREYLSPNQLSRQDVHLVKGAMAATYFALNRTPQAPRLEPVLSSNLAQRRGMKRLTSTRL
inhibition (PRKCE (human)) [%],inhibition (RPS6KA6 KD1 (human)) [%],inhibition (PKN1 (human)) [%],inhibition (DMPK (human)) [%],inhibition (PRKCD (human)) [%],inhibition (STK32B (human)) [%],inhibition (PDPK1 (human)) [%],inhibition (AURKB (human)) [%],inhibition (PRKACB (human)) [%],inhibition (PRKCI (human)) [%],inhibition (RPS6KA1 KD1 (human)) [%],inhibition (AURKC (human)) [%],inhibition (PRKX (human)) [%],inhibition (AKT3 (human)) [%],inhibition (AURKA (human)) [%],inhibition (AKT1 (human)) [%],inhibition (RPS6KA2 KD1 (human)) [%],inhibition (SGK3 (human)) [%],inhibition (PRKCQ (human)) [%],inhibition (RPS6KA4 KD1 (human)) [%],Compound,other results
0,0,0,0,1,0,0,0,–,38,2,6,77,0,0,0,0,0,1,0,O=S(=O)(c1cccc2cnccc12)N1CCCNCC1,inhibition (AKT2 (human)): 0%; inhibition (PRKCG (human)): 0%; inhibition (PRKCH (human)): 17%; inhibition (RPS6KA5 KD1 (human)): 0%; inhibition (SGK2 (human)): 1%
8,14,0,28,0,58,0,0,0,0,27,0,0,0,0,2,1,0,0,1,Cc1ccc(-c2nn(C(C)(C)C)c3ncnc(N)c23)cc1,inhibition (AKT2 (human)): 0%; inhibition (PRKCG (human)): 0%; inhibition (PRKCH (human)): 8%; inhibition (RPS6KA5 KD1 (human)): 0%; inhibition (RPS6KA3 KD1 (human)): 8%; inhibition (SGK2 (human)): 0%
40,10,0,18,4,8,9,32,12,0,4,15,29,0,19,0,0,62,38,0,O=C(c1ccc(Nc2nccc(-c3cc4ccccc4s3)n2)cc1)N1CCC(N2CCCC2)CC1,inhibition (AKT2 (human)): 0%; inhibition (PRKACA (mouse)): 12%; inhibition (PRKCG (human)): 13%; inhibition (RPS6KA5 KD1 (human)): 0%; inhibition (RPS6KA3 KD1 (human)): 2%; inhibition (SGK2 (human)): 69%
0,0,0,–,0,19,10,3,8,0,0,0,8,0,0,15,3,12,12,0,O=C1NC(=O)c2cc(Nc3ccc(F)cc3)c(Nc3ccc(F)cc3)cc21,inhibition (AKT2 (human)): 0%; inhibition (PRKACA (mouse)): 13%; inhibition (PRKCH (human)): 1%; inhibition (RPS6KA5 KD1 (human)): 0%; inhibition (RPS6KA3 KD1 (human)): 0%; inhibition (SGK2 (human)): 0%
22,69,0,0,0,0,10,22,0,22,86,30,25,26,0,28,69,42,7,86,CCN(CC)CCNC(=O)c1c(C)[nH]c(/C=C2\C(=O)Nc3ccc(F)cc32)c1C,inhibition (PRKACA (mouse)): 2%; inhibition (PRKCG (human)): 0%; inhibition (PRKCH (human)): 39%; inhibition (RPS6KA3 KD1 (human)): 59%; inhibition (SGK2 (human)): 44%
0,3,2,9,0,1,0,55,0,0,5,66,7,0,13,9,2,0,0,0,COc1cc2c(Nc3ccc(NC(=O)c4ccccc4)cc3)ncnc2cc1OCCCN1CCOCC1,inhibition (AKT2 (human)): 0%; inhibition (PRKACA (mouse)): 7%; inhibition (PRKCG (human)): 6%; inhibition (PRKCH (human)): 0%; inhibition (RPS6KA5 KD1 (human)): 0%; inhibition (SGK2 (human)): 0%
71,80,36,76,91,63,2,13,73,63,71,10,32,78,2,62,89,65,93,56,Cn1cc(C2=C(c3cn(CCCSC(=N)N)c4ccccc34)C(=O)NC2=O)c2ccccc21,inhibition (AKT2 (human)): 28%; inhibition (PRKACA (mouse)): 62%; inhibition (PRKCH (human)): 81%; inhibition (RPS6KA5 KD1 (human)): 64%; inhibition (RPS6KA3 KD1 (human)): 87%; inhibition (SGK2 (human)): 34%

Compound,inhibition (PRKCE (human)) [%],inhibition (RPS6KA6 KD1 (human)) [%],inhibition (PKN1 (human)) [%],inhibition (DMPK (human)) [%],inhibition (PRKCD (human)) [%],inhibition (STK32B (human)) [%],inhibition (PDPK1 (human)) [%],inhibition (AURKB (human)) [%],inhibition (PRKACB (human)) [%],inhibition (PRKCI (human)) [%],inhibition (RPS6KA1 KD1 (human)) [%],inhibition (AURKC (human)) [%],inhibition (PRKX (human)) [%],inhibition (AKT3 (human)) [%],inhibition (AURKA (human)) [%],inhibition (AKT1 (human)) [%],inhibition (RPS6KA2 KD1 (human)) [%],inhibition (SGK3 (human)) [%],inhibition (PRKCQ (human)) [%],inhibition (RPS6KA4 KD1 (human)) [%],other results
O=S(=O)(NCCNC/C=C/c1ccc(Br)cc1)c1cccc2cnccc12,9,5,0,0,10,17,0,2,75,80,0,12,87,15,0,21,0,41,40,10,inhibition (AKT2 (human)): 0%; inhibition (PRKACA (mouse)): 67%; inhibition (PRKCG (human)): 0%; inhibition (PRKCH (human)): 34%; inhibition (RPS6KA5 KD1 (human)): 0%; inhibition (RPS6KA3 KD1 (human)): 5%
CO[C@@H]1[C@H](N(C)C(=O)c2ccccc2)C[C@H]2O[C@]1(C)n1c3ccccc3c3c4c(c5c6ccccc6n2c5c31)C(=O)NC4,57,75,23,29,52,56,10,44,81,65,56,38,71,31,26,55,70,43,55,70,inhibition (PRKACA (mouse)): 63%; inhibition (PRKCG (human)): 52%; inhibition (PRKCH (human)): 60%; inhibition (RPS6KA5 KD1 (human)): 66%; inhibition (RPS6KA3 KD1 (human)): 79%; inhibition (SGK2 (human)): 22%
